Laboratory results from patent EP1159261B1, “ANTIZYME MODULATORS AND THEIR USE” (ORIDIGM CORPORATION, priority 1999, dated 2000).
“Also recorded” adds a separate entry of the source. Where two headings read alike, the source gives them in different places.

What was measured:
polyamine transporter = assay: polyamine transport assay (^3H-spermidine uptake into cells); assay type: cell-based; conditions: result in words
Experimental: Cells in log growth are pre-incubated with an agmatine analog followed by addition of ^3H-spermidine. […] The cells were then washed three times with cold PBS, lysed with 0.1% SDS, and the amount of polyamine incorporation into the cells was determined by scintillation counting of the cell lysates. To determine a Ki, four substrate concentrations and five inhibitor concentrations and a control were tested. The Ki was determined by a non-linear fit to the Michaelis-Menten equation.
(§1) For example, compounds ORI 1041 and ORI 1093 were evaluated as polyamine transport inhibitors and for growth inhibition in a cell based (MDA-MB-231 breast cancer cell line) assay with and without DFMO.

[1] = system: breast carcinoma cell line, MDA-MB-231; assay: cell growth inhibition, seven days, MTS/PMS dye assay; assay type: cell-based; conditions: for IC50: Homo sapiens
Experimental: The IC50 values in the above Table as well as Tables 1B and 1C below were determined with the breast carcinoma cell line, MDA-MB-231.
Cells were plated in 96-well plates such that they would be in log growth for the duration of the assay. The day after plating, drugs were added to the cells and they were grown for seven days. Cell growth was measured by MTS/PMS dye assay (Promega). The assay was done in the presence of 1 mM aminoguanidine to inhibit amine oxidases from the serum in the culture media and 1 µM spermidine to insure that any growth inhibition was not the result of depletion of external polyamines from the media. The assay was also performed over seven days because this allows for the greatest dynamic range in cell growth due to the mechanism of concomitant inhibition of polyamine biosynthesis and transport. Cells need to divide several times before the intracellular level of polyamines begin to decrease to growth inhibitory levels.
as §1

human antizyme sequence [2] = assay: in vitro antizyme dual luciferase frameshifting assay (in vitro translation in reticulocyte lysate); assay type: biochemical; conditions: for In vitro antizyme induction / antizyme induction: result in words; for antizyme induction: sentence does not say in vitro or in vivo, context is the in vitro assay
Excerpt: As one skilled in the art would appreciate, there are a multitude of means to test the agmatine and polyamine analogs of the invention for the ability to induce a frameshift. […] This assay allows one to measure the efficiency of translational frameshifting on the human antizyme sequence. Briefly, two variations of the human antizyme sequence were cloned between the renilla (5') and firefly (3') luciferase reporter genes in pRL-SV40 (Promega) plasmids. One plasmid contained the wild type antizyme sequence which requires a +1 frameshift for complete translation, the other plasmid contained modified, in-frame antizyme (control) sequences. These plasmids are utilized to transiently or stably transfect human cell lines with either the wild type or in-frame antizyme sequence-containing plasmids. Renilla and firefly luciferase activity in each assay (with cells containing one of the two plasmids) is measured to account for polymerase fall-off or translational efficiency in the presence or absence of the agmatine and polyamine analogs of the invention. That ratio is used to normalize the firefly luciferase activity seen in the wild type sequence, compared to the in-frame control sequence.
(§2) In vitro assays of the effect of agmatine and polyamine analogs on antizyme frameshifting were performed as follows. Linearized plasmids containing the wild type and in-frame antizyme sequence were transcribed in vitro, followed by in vitro translation in reticulocyte lysate, with and without agmatine and polyamine analogs. Luminescence was measured using the Dual-Luciferase™ reporter assay (Promega).
This assay allows one to measure the efficiency of translational frameshifting on the human antizyme sequence. Briefly, two variations of the human antizyme sequence were cloned between the renilla (5') and firefly (3') luciferase reporter genes in pRL-SV40 (Promega) plasmids. One plasmid contained the wild type antizyme sequence which requires a +1 frameshift for complete translation, the other plasmid contained modified, in-frame antizyme (control) sequences. These plasmids are utilized to transiently or stably transfect human cell lines with either the wild type or in-frame antizyme sequence-containing plasmids. Renilla and firefly luciferase activity in each assay (with cells containing one of the two plasmids) is measured to account for polymerase fall-off or translational efficiency in the presence or absence of the analogs of the invention. That ratio is used to normalize the firefly luciferase activity seen in the wild type sequence, compared to the in-frame control sequence.
as §2, with “agmatine” for “agmatine and polyamine”, “agmatine analogs .” for “agmatine and polyamine analogs.”

human antizyme sequence [3] = assay: in vivo (cellular) antizyme dual luciferase frameshifting assay in transfected cell lines; assay type: cell-based; conditions: for In vivo (cellular) antizyme induction: result in words
Experimental: As one skilled in the art would appreciate, there are a multitude of means to test the agmatine and polyamine analogs of the invention for the ability to induce a frameshift. For example, Satriano et al. (J. Biol. Chem., 273:15313-15316 (1998)) and the references cited therein utilized an in vitro reticulocyte system. The agmatine and polyamine analogs of the invention were tested in vitro (such as by test tube) and in vivo (such as by cell culture) using the antizyme dual luciferase frameshifting assay as described by Grentzmann, G., et al in RNA 4:479-486, 1998. This assay allows one to measure the efficiency of translational frameshifting on the human antizyme sequence. Briefly, two variations of the human antizyme sequence were cloned between the renilla (5') and firefly (3') luciferase reporter genes in pRL-SV40 (Promega) plasmids. One plasmid contained the wild type antizyme sequence which requires a +1 frameshift for complete translation, the other plasmid contained modified, in-frame antizyme (control) sequences. These plasmids are utilized to transiently or stably transfect human cell lines with either the wild type or in-frame antizyme sequence-containing plasmids. Renilla and firefly luciferase activity in each assay (with cells containing one of the two plasmids) is measured to account for polymerase fall-off or translational efficiency in the presence or absence of the agmatine and polyamine analogs of the invention. That ratio is used to normalize the firefly luciferase activity seen in the wild type sequence, compared to the in-frame control sequence. […] Agmatine and polyamine analogs of the invention were tested in vitro (such as by test tube) and in vivo (such as with cell lines) using the antizyme dual luciferase frameshifting assay as described by Grentzmann, G., et al in RNA 4:479-486, 1998. This assay allows one to measure the efficiency of translational frameshifting on the human antizyme sequence. Briefly, two variations of the human antizyme sequence were cloned between the renilla (5') and firefly (3') luciferase reporter genes in pRL-SV40 (Promega) plasmids. One plasmid contained the wild type antizyme sequence which requires a +1 frameshift for complete translation, the other plasmid contained modified, in-frame antizyme (control) sequences. These plasmids are utilized to transiently or stably transfect human cell lines with either the wild type or in-frame antizyme sequence-containing plasmids. Renilla and firefly luciferase activity in each assay (with cells containing one of the two plasmids) is measured to account for polymerase fall-off or translational efficiency in the presence or absence of the analogs of the invention. That ratio is used to normalize the firefly luciferase activity seen in the wild type sequence, compared to the in-frame control sequence.

[4] = MDA-MB-231, with DFMO, unit inferred, read-out: Cell Growth IC50+DFMO
[5] = MDA-MB-231, without DFMO, unit printed in b172 only, read-out: Cell Growth IC50

How did the polyamine transport inhibition (polyamine transporter) turn out when `NCCCNCCCCNCCCNS(=O)(=O)c1ccc2oc3ccccc3c2c1` [Analog 1041] was run?
Its polyamine transport inhibition is “fairly good transport inhibitor”.

What about the IC50 [1, 4] of the same compound?
The IC50 was 53 µM.

What about the IC50 [1, 5] of the same compound?
The IC50 was 50 µM.

What about the IC50 ([1]; MDA-MB-231, Tables 1A and 1B, unit inferred, read-out: IC50) of the same compound?
Its IC50 is 12 µM.

What about the “R value (R= IC50/ IC50+DFMO)” value ([1]; MDA-MB-231) of the same compound?
Its value is roughly 1.

And the In vitro (human antizyme sequence [2]; antizyme induction at 0.06 mM)?
Its In vitro is 15% at 0.06 mM.

What about the “In vitro antizyme induction” value (human antizyme sequence [2]) of the same compound?
Its value is “demonstrated in vitro induction activity; also recorded: dramatic increase in in vitro induction activity in comparison with spermidine”.

Which “In vivo (cellular)” value (human antizyme sequence [3]; antizyme induction @ 10 mM) does the source give for `CC(=O)NCCCNCCCCNCCCN` [Analog 1110, N^1-acetylspermine] here?
The value was 30% @ 10 mM.

What about the “In vivo (cellular) antizyme induction” value (human antizyme sequence [3]) of the same compound?
The value was “demonstrated antizyme inducing activity”.

What about the “In vivo (cellular) antizyme induction” value (human antizyme sequence [3]; listed as ORI 1110) of the same compound?
The value was “diminished ability to induce the expression of active antizyme in comparison with spermidine”.

`NCCCCNCCCCNCCCCN` [Analog 1190] was tested. Which “In vivo (cellular) antizyme induction” value (human antizyme sequence [3]) did it give?
The value was “negative; also recorded: no ability to induce antizyme”.

Which “In vivo (cellular) antizyme induction” value (human antizyme sequence [3]) does the source give for `NCCCNCc1ccc(CNCCCN)cc1` [Analog 1283] here?
Its value is “positive; also recorded: increase in induction activity”.

With `N=C(N)NOCC[C@H](N)C(=O)O` [Analog 1284, L-canavanine] as the compound, how does the “In vitro antizyme induction” value (human antizyme sequence [2]) read?
The value was “no activity”.

With `NCCCON` [Analog 1291, AOPA] as the compound, how does the antizyme induction (human antizyme sequence [2]) read?
The antizyme induction was “no induction activity is observed”.

How did the antizyme induction (human antizyme sequence [2]) turn out when `NCCCCON` [Analog 1292, AOBA] was run?
The antizyme induction was “no induction activity is observed”.

With `O=S(=O)(NCCCNCCCCNCCCNS(=O)(=O)c1ccc2oc3ccccc3c2c1)c1ccc2oc3ccccc3c2c1` [Analog 1293] as the compound, how does the polyamine transport inhibition (polyamine transporter) read?
Its polyamine transport inhibition is “fairly poor transport inhibitor”.

What about the IC50 [1, 4] of the same compound?
The IC50 was 2 µM.

What about the IC50 [1, 5] of the same compound?
The IC50 was 2 µM.

What about the “R value (R= IC50/ IC50+DFMO)” value ([1]; MDA-MB-231) of the same compound?
Its value is roughly 1.

For `CC(N)CCC(C)N` (stereo not shown) [Analog 1351, 2,5-diaminohexane], which “In vitro antizyme induction” value (human antizyme sequence [2]) is on record?
The value was “induces antizyme”.

How did the antizyme induction (human antizyme sequence [2]) turn out when `NCCCC[C@H](N)C(=O)O` [L-lysine, reference compound] was run?
The antizyme induction was “does not induce antizyme activation”.

Which “In vivo (cellular)” value (human antizyme sequence [3]; antizyme induction @ 16 mM) does the source give for `NCCCCNCCCN` [Spermidine, reference compound] here?
The value was 35% @ 16 mM.

What about the In vitro (human antizyme sequence [2]; antizyme induction @ 1 mM) of the same compound?
Its In vitro is 22% @ 1 mM.

Which results are given for `NCCCCCN` [cadaverine, reference compound]?
In vivo (cellular) antizyme induction (human antizyme sequence [3]): only slightly less active than putrescine; also recorded: significant in vivo activity; In vitro antizyme induction (human antizyme sequence [2]): no induction was observed; also recorded: no in vitro activity

With `NCCCNCCCCNCCCN` [spermine, reference compound] as the compound, how does the “In vivo (cellular) antizyme induction” value (human antizyme sequence [3]) read?
Its value is “induced antizyme”.

What about the “In vitro antizyme induction” value (human antizyme sequence [2]) of the same compound?
The value was “induced antizyme”.

Which “In vivo (cellular) antizyme induction” value (human antizyme sequence [3]) does the source give for L-Lys-spermine conjugate [Analog 1202] here?
Its value is “positive; also recorded: diminished ability to induce antizyme”.

And the “In vitro antizyme induction” value (human antizyme sequence [2])?
Its value is “diminished ability to induce antizyme”.

For L-Val-spermine [Analog 1157], which “In vitro antizyme induction” value (human antizyme sequence [2]) is on record?
Its value is “retained the ability to induce antizyme”.

How did the “In vivo (cellular) antizyme induction” value (human antizyme sequence [3]) turn out when α-dimethylspermine [Analog 1383] was run?
Its value is “positive; also recorded: to the same extent as spermine”.
